# From patent publication US8410161B2, “Thioxanthone ring system derivatives” (National Defense Medical Center, priority 2010, dated 2013)
# Columns and labels:
# [1] = tested on: HS 578-T; test: NCI in vitro DTP human cell line screen, HS 578-T; assay type: cell-based; settings: Breast Cancer, 1.00E−5 Molar
# Description: (§1) Then, a cell toxicity assay of the cancer lines made by National Cancer Institute will be discussed as follows. The cell toxicity assay is performed by choosing ten compounds (existing certification numbers) from the 59 compounds disclosed in the present invention first.
# [2] = tested on: RPMI-8226; test: NCI in vitro DTP human cell line screen, RPMI-8226; assay type: cell-based; settings: Leukemia, 1.00E−5 Molar
# Description: as §1
# [3] = tested on: U251; test: NCI in vitro DTP human cell line screen, U251; assay type: cell-based; settings: CNS Cancer, 1.00E−5 Molar
# Description: as §1
# [4] = tested on: IGROV1; test: NCI in vitro DTP human cell line screen, IGROV1; assay type: cell-based; settings: Ovarian Cancer, 1.00E−5 Molar
# Description: as §1
# [5] = tested on: OVCAR-8; test: NCI in vitro DTP human cell line screen, OVCAR-8; assay type: cell-based; settings: Ovarian Cancer, 1.00E−5 Molar
# Description: as §1
# [6] = tested on: HCT-15; test: NCI in vitro DTP human cell line screen, HCT-15; assay type: cell-based; settings: Colon Cancer, 1.00E−5 Molar
# Description: as §1
# [7] = tested on: PC-3; test: NCI in vitro DTP human cell line screen, PC-3; assay type: cell-based; settings: Prostate Cancer, 1.00E−5 Molar
# Description: as §1
# [8] = tested on: NCI/ADR-RES; test: NCI in vitro DTP human cell line screen, NCI/ADR-RES; assay type: cell-based; settings: Ovarian Cancer, 1.00E−5 Molar
# Description: as §1
# [9] = tested on: OVCAR-3; test: NCI in vitro DTP human cell line screen, OVCAR-3; assay type: cell-based; settings: Ovarian Cancer, 1.00E−5 Molar
# Description: as §1
# [10] = tested on: MDA-MB-231/ATCC; test: NCI in vitro DTP human cell line screen, MDA-MB-231/ATCC; assay type: cell-based; settings: Breast Cancer, 1.00E−5 Molar
# Description: as §1
# [11] = tested on: MDA-MB-435; test: NCI in vitro DTP human cell line screen, MDA-MB-435; assay type: cell-based; settings: Melanoma, 1.00E−5 Molar
# Description: as §1
# [12] = tested on: ACHN; test: NCI in vitro DTP human cell line screen, ACHN; assay type: cell-based; settings: Renal Cancer, 1.00E−5 Molar
# Description: as §1
# [13] = tested on: NCI-H522; test: NCI in vitro DTP human cell line screen, NCI-H522; assay type: cell-based; settings: Non-Small Cell Lung Cancer, 1.00E−5 Molar
# Description: as §1
# [14] = tested on: K562; test: NCI in vitro DTP human cell line screen, K562; assay type: cell-based; settings: Leukemia, 1.00E−5 Molar
# Description: as §1
# [15] = tested on: T-47D; test: NCI in vitro DTP human cell line screen, T-47D; assay type: cell-based; settings: Breast Cancer, 1.00E−5 Molar
# Description: as §1
# [16] = tested on: OVCAR-4; test: NCI in vitro DTP human cell line screen, OVCAR-4; assay type: cell-based; settings: Ovarian Cancer, 1.00E−5 Molar
# Description: as §1
# [17] = tested on: BT-549; test: NCI in vitro DTP human cell line screen, BT-549; assay type: cell-based; settings: Breast Cancer, 1.00E−5 Molar
# Description: as §1
# [18] = tested on: TK-10; test: NCI in vitro DTP human cell line screen, TK-10; assay type: cell-based; settings: Renal Cancer, 1.00E−5 Molar
# Description: as §1
# [19] = tested on: NCI-H460; test: NCI in vitro DTP human cell line screen, NCI-H460; assay type: cell-based; settings: Non-Small Cell Lung Cancer, 1.00E−5 Molar
# Description: as §1
# [20] = tested on: COLO 205; test: NCI in vitro DTP human cell line screen, COLO 205; assay type: cell-based; settings: Colon Cancer, 1.00E−5 Molar
# Description: as §1
# [21] = tested on: MALME-3M; test: NCI in vitro DTP human cell line screen, MALME-3M; assay type: cell-based; settings: Melanoma, 1.00E−5 Molar
# Description: as §1
# [22] = tested on: HL-60(TB); test: NCI in vitro DTP human cell line screen, HL-60(TB); assay type: cell-based; settings: Leukemia, 1.00E−5 Molar
# Description: as §1
# [23] = tested on: NCI-H226; test: NCI in vitro DTP human cell line screen, NCI-H226; assay type: cell-based; settings: Non-Small Cell Lung Cancer, 1.00E−5 Molar
# Description: as §1
# [24] = tested on: CAKI-1; test: NCI in vitro DTP human cell line screen, CAKI-1; assay type: cell-based; settings: Renal Cancer, 1.00E−5 Molar
# Description: as §1
# [25] = tested on: MCF7; test: NCI in vitro DTP human cell line screen, MCF7; assay type: cell-based; settings: Breast Cancer, 1.00E−5 Molar
# Description: as §1
# [26] = tested on: HCC-2998; test: NCI in vitro DTP human cell line screen, HCC-2998; assay type: cell-based; settings: Colon Cancer, 1.00E−5 Molar
# Description: as §1
# [27] = tested on: LOX IMVI; test: NCI in vitro DTP human cell line screen, LOX IMVI; assay type: cell-based; settings: Melanoma, 1.00E−5 Molar
# Description: as §1
# [28] = tested on: UO-31; test: NCI in vitro DTP human cell line screen, UO-31; assay type: cell-based; settings: Renal Cancer, 1.00E−5 Molar
# Description: as §1
# [29] = tested on: M14; test: NCI in vitro DTP human cell line screen, M14; assay type: cell-based; settings: Melanoma, 1.00E−5 Molar
# Description: as §1
# [30] = tested on: MDA-MB-468; test: NCI in vitro DTP human cell line screen, MDA-MB-468; assay type: cell-based; settings: Breast Cancer, 1.00E−5 Molar
# Description: as §1
# [31] = tested on: 786-0; test: NCI in vitro DTP human cell line screen, 786-0; assay type: cell-based; settings: Renal Cancer, 1.00E−5 Molar
# Description: as §1
# [32] = tested on: SK-MEL-5; test: NCI in vitro DTP human cell line screen, SK-MEL-5; assay type: cell-based; settings: Melanoma, 1.00E−5 Molar
# Description: as §1
# [33] = tested on: NCI-H322M; test: NCI in vitro DTP human cell line screen, NCI-H322M; assay type: cell-based; settings: Non-Small Cell Lung Cancer, 1.00E−5 Molar
# Description: as §1
# [34] = tested on: EKVX; test: NCI in vitro DTP human cell line screen, EKVX; assay type: cell-based; settings: Non-Small Cell Lung Cancer, 1.00E−5 Molar
# Description: as §1
# [35] = tested on: DU145; test: NCI in vitro DTP human cell line screen, DU145; assay type: cell-based; settings: Prostate Cancer, 1.00E−5 Molar
# Description: as §1
# [36] = tested on: 60 cancer lines; test: NCI cell toxicity assay of 60 cancer lines, whole panel summary; assay type: cell-based, human; settings: mean over all cell lines; 1.00E−5 Molar
# Description: as §1
# [37] = tested on: HT29; test: NCI in vitro DTP human cell line screen, HT29; assay type: cell-based; settings: Colon Cancer, 1.00E−5 Molar
# Description: as §1
# [38] = tested on: SW-620; test: NCI in vitro DTP human cell line screen, SW-620; assay type: cell-based; settings: Colon Cancer, 1.00E−5 Molar
# Description: as §1
# [39] = tested on: HOP-92; test: NCI in vitro DTP human cell line screen, HOP-92; assay type: cell-based; settings: Non-Small Cell Lung Cancer, 1.00E−5 Molar
# Description: as §1
# [40] = tested on: SK-MEL-2; test: NCI in vitro DTP human cell line screen, SK-MEL-2; assay type: cell-based; settings: Melanoma, 1.00E−5 Molar
# Description: as §1
# [41] = tested on: CCRF-CEM; test: NCI in vitro DTP human cell line screen, CCRF-CEM; assay type: cell-based; settings: Leukemia, 1.00E−5 Molar
# Description: as §1
# [42] = tested on: UACC-257; test: NCI in vitro DTP human cell line screen, UACC-257; assay type: cell-based; settings: Melanoma, 1.00E−5 Molar
# Description: as §1
# [43] = tested on: NCI-H23; test: NCI in vitro DTP human cell line screen, NCI-H23; assay type: cell-based; settings: Non-Small Cell Lung Cancer, 1.00E−5 Molar
# Description: as §1
# [44] = tested on: SF-539; test: NCI in vitro DTP human cell line screen, SF-539; assay type: cell-based; settings: CNS Cancer, 1.00E−5 Molar
# Description: as §1
# [45] = tested on: SK-MEL-28; test: NCI in vitro DTP human cell line screen, SK-MEL-28; assay type: cell-based; settings: Melanoma, 1.00E−5 Molar
# Description: as §1
# [46] = tested on: A3 cell lines; test: MTT assay, A3 cell lines (lung cancer stem cell); assay type: cell-based
# Source text: Please to FIG. 4B, various cell viabilities of the A3 cell lines can be obtained through the MTT assay and illustrated in FIG. 4B while the compounds No. 1˜30 are used to treat A3 cell lines, wherein A3 cell lines are lung cancer stem cell.
# [47] = tested on: SK-OV-3; test: NCI in vitro DTP human cell line screen, SK-OV-3; assay type: cell-based; settings: Ovarian Cancer, 1.00E−5 Molar
# Description: as §1
# [48] = tested on: OVCAR-5; test: NCI in vitro DTP human cell line screen, OVCAR-5; assay type: cell-based; settings: Ovarian Cancer, 1.00E−5 Molar
# Description: as §1
# [49] = tested on: SF-268; test: NCI in vitro DTP human cell line screen, SF-268; assay type: cell-based; settings: CNS Cancer, 1.00E−5 Molar
# Description: as §1
# [50] = tested on: KM12; test: NCI in vitro DTP human cell line screen, KM12; assay type: cell-based; settings: Colon Cancer, 1.00E−5 Molar
# Description: as §1
# [51] = tested on: HCT-116; test: NCI in vitro DTP human cell line screen, HCT-116; assay type: cell-based; settings: Colon Cancer, 1.00E−5 Molar
# Description: as §1
# [52] = MTT assay, HEL299 fibroblast; assay type: cell-based; settings: human
# Source text: Please refer to FIG. 4C, various cell viabilities of the HEL299 cell lines can be obtained through the MTT assay while the compounds No. 1˜30 are used to treat HEL299 cell lines, wherein HEL299 cell lines are fibroblast.
# [53] = tested on: SR; test: NCI in vitro DTP human cell line screen, SR; assay type: cell-based; settings: Leukemia, 1.00E−5 Molar
# Description: as §1
# [54] = tested on: SF-295; test: NCI in vitro DTP human cell line screen, SF-295; assay type: cell-based; settings: CNS Cancer, 1.00E−5 Molar
# Description: as §1
# [55] = tested on: MOLT-4; test: NCI in vitro DTP human cell line screen, MOLT-4; assay type: cell-based; settings: Leukemia, 1.00E−5 Molar
# Description: as §1
# [56] = tested on: SNB-75; test: NCI in vitro DTP human cell line screen, SNB-75; assay type: cell-based; settings: CNS Cancer, 1.00E−5 Molar
# Description: as §1
# [57] = tested on: A control cell lines; test: MTT assay, A control cell lines (lung cancer cell); assay type: cell-based
# Source text: Please refer to Table 1 and FIGS. 4A-4C. According to a MTT assay (Table 1), various cell viabilities of the A control cell lines can be obtained and illustrated in FIG. 4A while the compounds No. 2˜30 are used to treat A control cell lines, wherein A control cell lines are lung cancer cell.
structure (smiles),measurement,setting,value
"Cc1cccc(C)c1Sc1ccc2c(=O)c3ccccc3sc2c1Cl [No. 12, 4-Chloro-3-(2,6-dimethylphenylthio)-9H-thioxanthen-9-one]",Growth Percent,[1],107.64%
same,Growth Percent,[2],101.60%
same,Growth Percent,[3],95.70%
same,Growth Percent,[4],98.49%
same,Growth Percent,[5],96.86%
same,Growth Percent,[6],99.05%
same,Growth Percent,[7],98.56%
same,Growth Percent,[8],105.14%
same,Growth Percent,[9],113.05%
same,Growth Percent,[10],108.12%
same,Growth Percent,[11],107.09%
same,Growth Percent,[12],103.68%
same,Growth Percent,[13],100.28%
same,Growth Percent,[14],97.86%
same,Growth Percent,[15],97.56%
same,Growth Percent,[16],107.51%
same,Growth Percent,[17],105.28%
same,Growth Percent,[18],99.22%
same,Growth Percent,[19],110.85%
same,Growth Percent,[20],110.46%
same,Growth Percent,[21],100.81%
same,Growth Percent,[22],109.07%
same,Growth Percent,[23],109.77%
same,Growth Percent,[24],89.35%
same,Growth Percent,[25],94.01%
same,Growth Percent,[26],103.54%
same,Growth Percent,[27],105.37%
same,Growth Percent,[28],87.03%
same,Growth Percent,[29],105.63%
same,Growth Percent,[30],113.20%
same,Growth Percent,[31],108.98%
same,Growth Percent,[32],104.77%
same,Growth Percent,[33],113.78%
same,Growth Percent,[34],103.89%
same,Growth Percent,[35],109.56%
same,"Growth Percent, Mean",[36],102.52%
same,Growth Percent,[37],103.86%
same,Growth Percent,[38],105.40%
same,Growth Percent,[39],88.79%
same,Growth Percent,[40],108.94%
same,Growth Percent,[41],88.07%
same,Growth Percent,[42],92.09%
same,Growth Percent,[43],93.96%
same,Growth Percent,[44],106.48%
same,Growth Percent,[45],110.00%
same,cell viabilities of A3 cell lines (MTT assay),[46],102 ± 9.52%
same,Growth Percent,[47],111.32%
same,Growth Percent,[48],96.86%
same,Growth Percent,[49],98.33%
same,Growth Percent,[50],113.08%
same,Growth Percent,[51],105.21%
same,viability,[52],101 ± 9.52%
same,Growth Percent,[53],95.93%
same,Growth Percent,[54],98.15%
same,Growth Percent,[55],104.33%
same,Growth Percent,[56],90.00%
same,cell viabilities of A control cell lines (MTT assay),[57],103 ± 5.86%
